The record followed here is article PMC11340408 (RSC Advances, 2024).

Common to all, as to assay type: cell-based, human
One data set has as its system A-375 cell line. Put plainly: MTT assay, melanoma A-375 cell line. The conditions noted are these: for IC50: Homo sapiens, A-375, 48 h, read-out: IC50 against A375; for Viability of A375 (in words): 15.62–500 μM, Fig. 6A.
The next data set relates to MCF-7 cell line. Put plainly: MTT assay, breast cancer MCF-7 cell line. The conditions noted are these: for IC50: Homo sapiens, MCF7, 48 h, read-out: IC50 against MCF-7; for Activity against MCF-7 compared to MTX (in words): MTT assay; for times greater efficacy than MTX against MCF-7: ratio to MTX IC50.
A further data set deals with HEK-293 cell line. In words: MTT assay, toxicity on normal cell line HEK-293. The note with it: for IC50: Homo sapiens, HEK293, 48 h, read-out: IC50 against HEK-293; for Viability of HEK-293 (in words): 15.62–500 μM.

For `Cn1c(=O)c2c(nc(Oc3ccc(/C=C/C(=O)c4cccc([N+](=O)[O-])c4)cc3)n2C)n(C)c1=O` [Compound 5c, (E)-1,3,7-Trimethyl-8-(4-(3-(3-nitrophenyl)-3-oxoprop-1-enyl)phenoxy)-1H-purine-2,6(3H,7H)-dione], the IC50 with A-375 cell line, in the data set with MCF-7 cell line and in the data set on HEK-293 cell line was over 500 µM throughout.

As to `COC(=O)c1ccc(/C=C/C(=O)c2ccc(Oc3nc4c(c(=O)n(C)c(=O)n4C)n3C)cc2)cc1` [Compound 4k, (E)-Methyl 4-(3-oxo-3-(4-(1,3,7-trimethyl-2,6-dioxo-2,3,6,7-tetrahydro-1H-purin-8-yloxy)phenyl)prop-1-enyl)benzoate], in the data set with A-375 cell line, the “Viability of A375 (in words)” value is “lowest viability values” and the IC50 was found to be 92 ± 3.2 µM. Moreover, the “Viability of MCF-7 (in words)” value with MCF-7 cell line (15.62–500 μM, Fig. 6B) was “lowest viability rate”. Also, in the data set with MCF-7 cell line, the IC50 was 34 ± 3.5 µM, the “Activity against MCF-7 compared to MTX (in words)” value was “activities surpassing that of MTX” and the “times greater efficacy than MTX against MCF-7” value (from here on “times greater efficacy than MTX”) was about 10 times. In the data set on HEK-293 cell line (Fig. 6C), the “Viability of HEK-293 (in words)” value is “highest toxicity and lowest viability”. Further, in the data set with HEK-293 cell line, the IC50 stood at 99 ± 3 µM. Also, the “Toxicity to HEK-293 compared to MTX (in words)” value in the data set on HEK-293 cell line (MTT assay) is recorded as “more toxic”. In the data set with HEK-293 cell line (MTT assay, normal cell line), the “Toxicity to HEK-293 cells (in words)” value is reported as “most toxic”.

For `Cn1c(=O)c2c(nc(Oc3ccc(/C=C/C(=O)c4ccc(Cl)cc4)cc3)n2C)n(C)c1=O` [Compound 5f, (E)-8-(4-(3-(4-Chlorophenyl)-3-oxoprop-1-enyl)phenoxy)-1,3,7-trimethyl-1H-purine-2,6(3H,7H)-dione], the IC50 in the data set on A-375 cell line was found to be 368 ± 3.1 µM; in the data set with MCF-7 cell line, 130 ± 3.4 µM; in the data set on HEK-293 cell line, 240 ± 3.7 µM. Also, the “Viability of HEK-293 (in words)” value with HEK-293 cell line (Fig. 6C) is given as “more toxic”.

Regarding `Cn1c(=O)c2c(nc(Oc3ccc(C(=O)/C=C/c4ccc(Cl)cc4Cl)cc3)n2C)n(C)c1=O` [Compound 4b, (E)-8-(4-(3-(2,4-Dichlorophenyl)acryloyl)phenoxy)-1,3,7-trimethyl-1H-purine-2,6(3H,7H)-dione], the IC50 in the data set with A-375 cell line stood at 325 ± 3.1 µM; in the data set with MCF-7 cell line, 230 ± 3.2 µM; with HEK-293 cell line, 347 ± 4.2 µM.

On to `COc1ccc(C(=O)/C=C/c2ccc(Oc3nc4c(c(=O)n(C)c(=O)n4C)n3C)cc2)cc1` [Compound 5a, (E)-8-(4-(3-(4-Methoxyphenyl)-3-oxoprop-1-enyl)phenoxy)-1,3,7-trimethyl-1H-purine-2,6(3H,7H)-dione], for which the IC50 is 249 ± 3.6 µM with A-375 cell line, 249 ± 3.2 µM in the data set on MCF-7 cell line and over 500 µM in the data set on HEK-293 cell line.

As to `Cn1c(=O)c2c(nc(Oc3ccc(C(=O)/C=C/c4cccc([N+](=O)[O-])c4)cc3)n2C)n(C)c1=O` [Compound 4f, (E)-1,3,7-Trimethyl-8-(4-(3-(3-nitrophenyl)acryloyl)phenoxy)-1H-purine-2,6(3H,7H)-dione], the IC50 with A-375 cell line, in the data set on MCF-7 cell line and in the data set on HEK-293 cell line was over 500 µM each time.

For `Cn1c(=O)c2c(nc(Oc3ccc(/C=C/C(=O)c4ccc5ccccc5c4)cc3)n2C)n(C)c1=O` [Compound 5e, (E)-1,3,7-Trimethyl-8-(4-(3-(naphthalen-2-yl)-3-oxoprop-1-enyl)phenoxy)-1H-purine-2,6(3H,7H)-dione], the values for the IC50 in the data set with A-375 cell line, in the data set on MCF-7 cell line and in the data set on HEK-293 cell line were over 500 µM, 333 ± 2.5 µM and over 500 µM, respectively.

With `Cn1c(=O)c2c(nc(Oc3ccc(C(=O)/C=C/c4ccc(Cl)cc4)cc3)n2C)n(C)c1=O` [Compound 4e, (E)-8-(4-(3-(4-Chlorophenyl)acryloyl)phenoxy)-1,3,7-trimethyl-1H-purine-2,6(3H,7H)-dione], the IC50 with A-375 cell line turned out to be 273 ± 3.4 µM. In the data set on MCF-7 cell line, the half-inhibitory concentration (IC50) came out at 35 ± 2.2 µM, the “Activity against MCF-7 compared to MTX (in words)” value was “activities surpassing that of MTX” and the “times greater efficacy than MTX” value was about 10 times. For the same compound, in the data set with HEK-293 cell line, the IC50 came to 386 ± 3.2 µM.

For the compound `Cn1c(=O)c2c(nc(Oc3ccc(C(=O)/C=C/c4ccccc4)cc3)n2C)n(C)c1=O` [Compound 4d, (E)-8-(4-Cinnamoylphenoxy)-1,3,7-trimethyl-1H-purine-2,6(3H,7H) dione], in the data set on A-375 cell line, the IC50 is 157 ± 4.2 µM. In addition, in the data set with MCF-7 cell line, the IC50 worked out at 18 ± 1.9 µM, the “Activity against MCF-7 compared to MTX (in words)” value is “activities surpassing that of MTX” and the “times greater efficacy than MTX” value was about 19 times. Further, the IC50 in the data set on HEK-293 cell line was found to be 220 ± 3.4 µM.

Regarding `Cc1ccc(/C=C/C(=O)c2ccc(Oc3nc4c(c(=O)n(C)c(=O)n4C)n3C)cc2)cc1` [Compound 4a, (E)-1,3,7-Trimethyl-8-(4-(3-p-tolylacryloyl)phenoxy)-1H-purine-2,6(3H,7H)-dione], the IC50 was 279 ± 2.3 µM with A-375 cell line, 38 ± 3.7 µM with MCF-7 cell line and 407 ± 3.1 µM in the data set with HEK-293 cell line. Moreover, the “Activity against MCF-7 compared to MTX (in words)” value in the data set with MCF-7 cell line is recorded as “activities surpassing that of MTX”.

Consider `Cn1c(=O)c2c(nc(Oc3ccc(C(=O)/C=C/c4c(Cl)cccc4Cl)cc3)n2C)n(C)c1=O` [Compound 4j, (E)-8-(4-(3-(2,6-Dichlorophenyl)acryloyl)phenoxy)-1,3,7-trimethyl-1H-purine-2,6(3H,7H)-dione], for which the IC50 stood at 200 ± 4.3 µM in the data set with A-375 cell line, 181 ± 3.1 µM in the data set with MCF-7 cell line and 214 ± 4.3 µM in the data set with HEK-293 cell line.

As for `COc1ccc(/C=C/C(=O)c2ccc(Oc3nc4c(c(=O)n(C)c(=O)n4C)n3C)cc2)c(OC)c1` [Compound 4g, (E)-8-(4-(3-(2,4-Dimethoxyphenyl)acryloyl)phenoxy)-1,3,7-trimethyl-1H-purine-2,6(3H,7H)-dione], the figures for the IC50 in the data set on A-375 cell line, in the data set on MCF-7 cell line and in the data set with HEK-293 cell line were 425 ± 3.5 µM, over 500 µM and over 500 µM, respectively.

As to `Cc1ccc(C(=O)/C=C/c2ccc(Oc3nc4c(c(=O)n(C)c(=O)n4C)n3C)cc2)cc1` [Compound 5d, (E)-1,3,7-Trimethyl-8-(4-(3-oxo-3-p-tolylprop-1-enyl)phenoxy)-1H-purine-2,6(3H,7H)-dione], the IC50 with A-375 cell line, with MCF-7 cell line and in the data set on HEK-293 cell line was over 500 µM in each case.

Regarding `COc1ccc(/C=C/C(=O)c2ccc(Oc3nc4c(c(=O)n(C)c(=O)n4C)n3C)cc2)cc1` [Compound 4h, (E)-8-(4-(3-(4-Methoxyphenyl)acryloyl)phenoxy)-1,3,7-trimethyl-1H-purine-2,6(3H,7H)-dione], the IC50 in the data set on A-375 cell line, in the data set with MCF-7 cell line and in the data set on HEK-293 cell line was over 500 µM each time.

With `Cn1c(=O)c2c(nc(Oc3ccc(/C=C/C(=O)c4ccc([N+](=O)[O-])cc4)cc3)n2C)n(C)c1=O` [Compound 5b, (E)-1,3,7-Trimethyl-8-(4-(3-(4-nitrophenyl)-3-oxoprop-1-enyl)phenoxy)-1H-purine-2,6(3H,7H)-dione], the figures for the IC50 in the data set with A-375 cell line, in the data set on MCF-7 cell line and with HEK-293 cell line were 275 ± 3.7 µM, 223 ± 3.7 µM and 419 ± 4.6 µM, respectively.

Take `Cn1c(=O)c2c(nc(Oc3ccc(C(=O)/C=C/c4ccccc4Cl)cc3)n2C)n(C)c1=O` [Compound 4i, (E)-8-(4-(3-(2-Chlorophenyl)acryloyl)phenoxy)-1,3,7-trimethyl-1H-purine-2,6(3H,7H)-dione]: the “Viability of A375 (in words)” value in the data set with A-375 cell line is “lowest viability values”. Further, the values for the IC50 in the data set on A-375 cell line, with MCF-7 cell line and in the data set on HEK-293 cell line were 111 ± 1.9 µM, 108 ± 3.1 µM and 162 ± 4.2 µM, respectively. The “Viability of HEK-293 (in words)” value in the data set on HEK-293 cell line (Fig. 6C) is recorded as “more toxic”. Also, the “Toxicity to HEK-293 compared to MTX (in words)” value with HEK-293 cell line (MTT assay) is given as “more toxic”.

Regarding `CN(Cc1cnc2nc(N)nc(N)c2n1)c1ccc(C(=O)N[C@@H](CCC(=O)O)C(=O)O)cc1` [MTX, methotrexate, reference compound], the IC50 with A-375 cell line worked out at 418 ± 2 µM; in the data set on MCF-7 cell line it was 343 ± 3.6 µM; in the data set with HEK-293 cell line, 199 ± 2.4 µM. Moreover, the “Toxicity against HEK-293 at 500 μM (in words)” value in the data set with HEK-293 cell line (500 μM, Fig. 6C) is given as “highest toxicity”.

For `COc1ccccc1/C=C/C(=O)c1ccc(Oc2nc3c(c(=O)n(C)c(=O)n3C)n2C)cc1` [Compound 4c, (E)-8-(4-(3-(2-Methoxyphenyl)acryloyl)phenoxy)-1,3,7-trimethyl-1H-purine-2,6(3H,7H)-dione], the IC50 in the data set with A-375 cell line stood at 325 ± 3.8 µM; in the data set with MCF-7 cell line, 269 ± 4.5 µM; in the data set with HEK-293 cell line it was 451 ± 2.4 µM.
